Structures can show the parent of a compound that is named as a salt.
Key:
μ receptor = molecular target: T1, μ receptor (Mus musculus, UniProt P42866); test: Ke with naloxone in isolated mouse vas deference preparation; type: cell-based, mouse (male ddy)
T1 construct: The isolated vas deference was filled with Krebes-Henseleit solution; from tissue; host or cells: isolated vas deferens of male ddy mouse
Method: (§1) A male ddy mouse was used in this test. The isolated vas deference was filled with Krebes-Henseleit solution (NaCl 118 mM; KCl 4.7 mM; CaCl2 2.5 mM; KH2 PO4 1.1 mM; NaHCO3 25 mM; and glucose 10 mM) warmed to 37° C. and suspended in a Magnus tube ventilated with 5% carbon dioxide and 95% oxygen. Electrical stimulus was performed at 0.1 Hz for 5.0 ms by means of ring-shaped platinum electrodes located above and below. Tissue contractions were recorded on a polygraph using an isometric transducer.
(§2) Then after adequately washing with nutrient solution and the contraction reaction stabilized, naloxone, a μ […], NTI, a δ […], or norBNI, a κ […], were added and the test compound was again cumulatively added after roughly 20 minutes. The Ke value was calculated using the following calculation formula from the difference in the efficacies of both agonists.
(§3) Ke=[Conc. of added agonist]/(IC50 ratio-1)
(§4) IC50 ratio IC50 in the presence of agonist/IC50 in the absence of agonist

δ receptor = molecular target: T2, δ receptor (Mus musculus, UniProt P32300); test: Ke with NTI in isolated mouse vas deference preparation; type: cell-based, mouse (male ddy); conditions: for Ke NTI: NTI (δ)
T2 construct: The isolated vas deference was filled with Krebes-Henseleit solution; from tissue; host or cells: isolated vas deferens of male ddy mouse
Method: as §1, §2, §3, §4

κ receptor = molecular target: T3, κ receptor (Mus musculus, UniProt P33534); test: Ke with norBNI in isolated mouse vas deference preparation; type: cell-based, mouse (male ddy); conditions: for Ke norBNI: norBNI (κ)
T3 construct: The isolated vas deference was filled with Krebes-Henseleit solution; from tissue; host or cells: isolated vas deferens of male ddy mouse
Method: as §1, §2, §3, §4

Wistar rats = test: Evaluation of diuretic action; type: in vivo, rat (male Wistar); conditions: sc, rat, s.c., urine output for 5 h after 20 ml/kg saline oral; for ED500: read-out: ED500, diuretic action (dose giving urine output of 500, non-dosed group = 100); for ED200: read-out: ED200, diuretic action (dose giving urine output of 200, non-dosed group = 100)
Method: Evaluation of Diuretic Action
7-8 week old male Wistar rats were used in this test after prohibiting from drinking water for 1 hour before testing. After discharging any urine accumulated in the bladder by gently stimulating the lower abdomens of the animals, the drug was administered subcutaneously. After 30 minutes, the animals were then forcibly given 20 ml/kg of physiological saline orally. The animals were then placed in metabolic cages immediately after administration of the drug (2 animals/cage) and urine output for 5 hours after loading with physiological saline was measured. Drug efficacy was expressed in the form of those doses resulting in urine outputs of 200 and 500, respectively, when the urine output of a non-dosed group was taken to be 100. Those doses were expressed as the ED200 and ED500 values, respectively.

[1] = system: isolated mouse vas deference; test: Opioid activity test using the isolated mouse vas deference preparation (electrically stimulated contractions); type: cell-based, mouse (male ddy); conditions: suppression of electrically stimulated contractions
Method: Opioid Activity Test Using the Isolated Mouse Vas Deference Preparation
as §1, §2

T3 sequence (P33534 whole entry): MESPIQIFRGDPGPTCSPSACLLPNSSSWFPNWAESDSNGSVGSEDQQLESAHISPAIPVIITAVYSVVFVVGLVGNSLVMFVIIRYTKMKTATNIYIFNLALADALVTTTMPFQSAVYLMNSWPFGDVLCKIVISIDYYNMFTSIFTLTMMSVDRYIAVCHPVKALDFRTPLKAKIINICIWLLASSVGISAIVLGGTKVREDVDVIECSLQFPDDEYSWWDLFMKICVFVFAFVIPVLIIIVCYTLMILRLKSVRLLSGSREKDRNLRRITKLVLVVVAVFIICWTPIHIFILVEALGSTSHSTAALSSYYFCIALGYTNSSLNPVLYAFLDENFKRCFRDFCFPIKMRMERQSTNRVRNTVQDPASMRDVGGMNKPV
T1 sequence (P42866 whole entry): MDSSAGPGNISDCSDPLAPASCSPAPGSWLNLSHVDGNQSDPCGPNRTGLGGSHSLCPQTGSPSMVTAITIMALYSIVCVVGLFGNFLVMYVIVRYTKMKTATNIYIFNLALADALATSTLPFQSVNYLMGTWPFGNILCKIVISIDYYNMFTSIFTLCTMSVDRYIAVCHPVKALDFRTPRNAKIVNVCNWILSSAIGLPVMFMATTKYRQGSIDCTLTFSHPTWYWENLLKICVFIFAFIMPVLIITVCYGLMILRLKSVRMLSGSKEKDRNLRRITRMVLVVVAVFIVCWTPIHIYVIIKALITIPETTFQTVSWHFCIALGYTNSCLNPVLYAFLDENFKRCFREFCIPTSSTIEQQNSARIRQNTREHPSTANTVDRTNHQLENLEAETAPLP
T2 sequence (P32300 whole entry): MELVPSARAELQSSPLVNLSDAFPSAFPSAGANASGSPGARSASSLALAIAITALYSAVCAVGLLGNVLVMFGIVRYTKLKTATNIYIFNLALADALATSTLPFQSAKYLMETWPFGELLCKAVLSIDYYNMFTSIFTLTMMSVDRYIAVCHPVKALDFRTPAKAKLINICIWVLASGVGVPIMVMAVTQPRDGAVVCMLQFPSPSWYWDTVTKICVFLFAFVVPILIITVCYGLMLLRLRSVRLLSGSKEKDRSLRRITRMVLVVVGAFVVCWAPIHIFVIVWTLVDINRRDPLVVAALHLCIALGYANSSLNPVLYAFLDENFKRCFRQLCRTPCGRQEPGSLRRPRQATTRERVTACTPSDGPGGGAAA

SMILES | Ke Naloxone (μ receptor) [nM] | Ke NTI (δ receptor) [nM] | selective agonist for κ receptors (in words) (κ receptor) | Ke norBNI (κ receptor) [nM] | ED500 (Wistar rats) [µg/kg] | ED200 (Wistar rats) [µg/kg] | selective agonist for δ receptors (in words) (δ receptor) | IC50 [1] [pM]
CN(C(=O)CCc1ccccc1)[C@H]1CC[C@@]2(O)[C@H]3Cc4ccc(O)c5c4[C@@]2(CCN3CC2CC2)[C@H]1O5 [Compound 22, 17-Cyclopropylmethyl-4,5α-epoxy-3,14β-dihydroxy-6α-(N-methyl-3-phenylpropionamido)morphinan.tartrate] | 800 | 545 | selective agonists for κ receptors | 5.53 | 17 | 0.95 |  | 
CN(C(=O)/C=C/c1ccccc1)[C@H]1CC[C@@]2(O)[C@H]3Cc4ccc(O)c5c4[C@@]2(CCN3CC2CC2)[C@H]1O5 [Compound 24, 17-cyclopropylmethyl-3,14β-dihydroxy-4,5α-epoxy-6α-(N-methylcinnamamido)morphinan.hydrochloride] | 16.5 | 0.426 |  | 4.90 | 6.3 | 0.69 | selective agonists for δ receptors | 
CN(C(=O)COc1ccccc1)[C@H]1CC[C@@]2(O)[C@H]3Cc4ccc(O)c5c4[C@@]2(CCN3CC2CC2)[C@H]1O5 [Compound 38, 17-cyclopropylmethyl-3,14β-dihydroxy-4,5α-epoxy-6α-(N-methylphenoxyacetamido) morphinan.hydrochloride] | 411 | 16.6 | selective agonists for κ receptors | 4.65 |  | 3.8 |  | 
CCCCCC(=O)N(C)[C@H]1CC[C@@]2(O)[C@H]3Cc4ccc(O)c5c4[C@@]2(CCN3CC2CC2)[C@H]1O5 [Compound 39, 17-cyclopropylmethyl-3,14β-dihydroxy-4,5α-epoxy-6α-(N-methylhexanamido)morphinan.tartrate] | 89.9 | 99.3 | selective agonists for κ receptors | 1.01 |  | 4.1 |  | 
CN(C(=O)OCc1ccc([N+](=O)[O-])cc1)[C@H]1CC[C@@]2(O)[C@H]3Cc4ccc(O)c5c4[C@@]2(CCN3CC2CC2)[C@H]1O5 [Compound 43, 17-cyclopropylmethyl-3,14β-dihydroxy-4,5α-epoxy-6α-(N-methyl-4-nitrobenzyloxycarbamido)morphinan.hydrochloride] | 409 | 22.5 | selective agonists for κ receptors | 5.31 | 4.4 | 0.54 |  | 
CN(C(=O)/C=C/c1ccoc1)[C@@H]1CC[C@@]2(O)[C@H]3Cc4ccc(O)c5c4[C@@]2(CCN3CC2CC2)[C@H]1O5 [Compound 61, 17-cyclopropylmethyl-3,14β-dihydroxy-4,5α-epoxy-6β-[N-methyl-trans-3-(3-furyl)acrylamido]morphinan.tartrate] |  |  |  | 0.164 |  | 3.2 |  | 420
CN(C(=O)/C=C/c1ccco1)[C@@H]1CC[C@@]2(O)[C@H]3Cc4ccc(O)c5c4[C@@]2(CCN3CC2CC2)[C@H]1O5 [Compound 70, 17-cyclopropylmethyl-3,14β-dihydroxy-4,5α-epoxy-62. [N-methyl-trans-3-(2-furyl)acrylamido] morphinan.hydrochloride] |  |  | selective agonists for κ receptors | 0.198 |  |  |  | 545
CN(C(=O)C#Cc1ccccc1)[C@H]1CC[C@@]2(O)[C@H]3Cc4ccc(O)c5c4[C@@]2(CCN3CC2CC2)[C@H]1O5 [Compound 84, 17-cyclopropylmethyl-3,14β-dihydroxy-4,5α-epoxy-6α-(N-methyl-3-phenylpropiolamido)morphinan.hydrochloride] | 35.4 | 0.309 |  | 5.69 |  | 2.8 | selective agonists for δ receptors | 
CN(C(=O)/C=C/c1ccoc1)[C@H]1CC[C@@]2(O)[C@H]3Cc4ccc(O)c5c4[C@@]2(CCN3CC2CC2)[C@H]1O5 [Compound 89, 17-cyclopropylmethyl-3,14β-dihydroxy-4,5α-epoxy-6α-[N-methyl-trans-3-(3-furyl)acrylamido]morphinane.tartrate] | 18.3 | 15.6 | selective agonists for κ receptors | 0.85 |  | 1.2 |  | 
CN(C(=O)/C=C/c1cccc([N+](=O)[O-])c1)[C@H]1CC[C@@]2(O)[C@H]3Cc4ccc(O)c5c4[C@@]2(CCN3CC2CC2)[C@H]1O5 [Compound 97, 17-cyclopropylmethyl-3,14β-dihydroxy-4,5α-epoxy-6α-(N-methyl-3-nitrocinnamamido)morphinanphosphate] | 163 | 2.92 |  | 13.9 |  | 4.5 | selective agonists for δ receptors | 
CN(C(=O)C#Cc1ccccc1)[C@@H]1CC[C@@]2(O)[C@H]3Cc4ccc(O)c5c4[C@@]2(CCN3CC2CC2)[C@H]1O5 [Compound 101, 17-cyclopropylmethyl-3,14β-dihydroxy-4,5α-epoxy-6β-(N-methyl-3-phenylpropiolamido)morphinan.hydrochloride] | 25.4 | 31.6 | selective agonists for κ receptors | 0.0425 |  | 8.9 |  | 
CN(C(=O)C#Cc1ccc(C(F)(F)F)cc1)[C@H]1CC[C@@]2(O)[C@H]3Cc4ccc(O)c5c4[C@@]2(CCN3CC2CC2)[C@H]1O5 [Compound 126, 17-Cyclopropylmethyl-3,14β-dihydroxy-4,5α-epoxy-6α-[N-methyl-3-(4-trifluoromethylphenyl)propiolamido] morphinan.0.5 tartrate] | 40.2 | 0.0065 |  | 1.20 |  |  | selective agonists for δ receptors | 
CC(=O)Oc1ccc2c3c1O[C@H]1[C@H](N(C)C(=O)/C=C/c4cccc(C(F)(F)F)c4)CC[C@@]4(O)[C@@H](C2)N(CC2CC2)CC[C@]314 [Compound 141, 17-cyclopropylmethyl-3-acetoxy-14β-hydroxy-4,5α-epoxy-6β-(N-methyl-3-trifluoromethylcinnamamido)morphinan.tartrate] | 142 | 184 | selective agonists for κ receptors | 1.39 |  |  |  | 
